# Data as given in EP3050886A1, “Fluorescent dyes and dye precursors” (Bürkert Werke GmbH, priority 2015, dated 2016).
# “Also recorded” adds a separate entry of the source.
# Assays:
# [1] = Absorption spectra / extinction coefficients; type: physicochemical; settings: pro-fluorophores, PBS buffer containing 0.6 % glutaraldehyde at pH 7
# Description: Absorption spectra were recorded in a 1-cm path length cuvette (Hellma, 104.002B-QS) on a SPECORD®-205 spectrometer from Analytik Jena.
# The Extinction coefficients of the flourophores fluorescein, 5-carboxyfluorescein (5-CF), 5-carboxy Oregon Green™ (5-COG), 5-amido N-propyl Oregon Green (5-POG; Example 2) and 5-amido N-propyl fluorescein (5-PFA; Example 3) were measured in 0.1 M NaOH solution at pH 12.7.
# The extinction coefficients of the pro-fluorophores 5-thiourea N-propyl fluorescein diacetate (5-PFDAT; Example 5), 5-propyl carboxylate fluorescein diacetate (5-PFDAE; Example 8), 5-amido N-propyl fluorescein diacetate (5-PFDA; Example 7), 5-carboxy Oregon Green diacetate (5-COGDA; Example 9), 5-amido N-propyl Oregon Green diacetate (5-POGDA; Example 6) and 5-amido N-propyl Oregon Green acetoxymethylester (5-POGAM; Example 10) were measured in PBS buffer containing 0.6 % glutaraldehyde at pH 7.
# [2] = Short-term chemical stability (spontaneous fluorescence generation) in aqueous buffer; type: physicochemical; settings: for chemical stability in aqueous solution (in words): PBS solution containing 0.6 % glutaraldehyde, 37°C; for relative speed of spontaneous fluorescence generation (spontaneous hydrolysis): relative to 5-CFDA, 15 µM, PBS containing 0.6 % glutaraldehyde, pH ~7, 37°C, 0-60 min
# Description: The short-term chemical stability of the pro-fluorophores of the present invention in an aqueous buffer was evaluated by fluorometric measurement analysis after several minutes of storage at 37°C.
# Each pro-fluorophore (5-CFDA, 5-PFDAE, 5-PFDAT, 5-PFDA, 5-COGDA, 5-POGDA, 5-POGAM) was dissolved in dimethylsulfoxide (DMSO) in order to prepare a 10 mM stock solution. Short-term stability studies (0-60 min) were performed in the absence of light at 37°C. The pro-fluorophore stock solutions were diluted into a PBS solution containing 0.6 % of glutaraldehyde (pH ∼7). The pro-fuorophore final concentration was 15 µM. Samples were stored in a fluorescence grade quartz cuvette having a volume of 1 ml. Fluorescence emission spectra between 500 and 540 nm were recorded every 10 minutes. The excitation wavelength used was 488 nm. Fluorometric measurement were made with a FluoroLog®-3. (Horiba Jobin Yvon) spectrofluorometer equipped with sample stirring. The same experiment was repeated three times (n = 3).
# Thus, the slope of the straight line corresponds to the speed of spontaneous fluorescence generation.
# Citobacter freudii = test: Bacteria staining test, fluorescence microscopy (data not shown); type: cell-based
# Description: (§1) Bacteria (100 µl suspension at 1·10^9 bacteria/ml) were stained with 10 µM or 15 µM of pro-fluorophore (5-CFDA, 5-PFDAE, 5-PFDAT, 5-PFDA, 5-COGDA, 5-POGDA or 5-POGAM) in 200 µl of PBS solution containing 0.6 % of glutaraldehyde. Bacteria were incubated at 37 °C for 10 - 60 min with pro-fluorophore in darkness. After bacterial staining, they were washed and resuspended in 100 µl of PBS as described above.
# (§2) Staining of the bacterial suspension was observed under a fluorescent microscope. These bacteria were imaged with a Leica DM5500 microscope equipped with FITC filter. […] Images were collected with a 100x objective. Fluorescence intensity of stained bacterial suspension was also measured with FluoroLog®-3 (Horiba Jobin Yvon) spectrofluorometer equipped with sample stirring. Samples were placed in fluorescence grade quartz cuvette having a volume of 1 ml. The excitation wavelength used was 488 nm and emission wavelength used was 517 nm. The same experiment was repeated three times (n = 3).
# (§3) No fluorescence signal was detected by microscopy analysis with the dead bacteria.
# [3] = tested on: Comamonas testosteroni/alcaligenes; test: as above; type: cell-based
# Description: as §1, §2, §3
# Klebsiella oxytoca = test: as above; type: cell-based
# Description: as §1, §2, §3
# E. coli (ATCC 8739) [4] = test: Labeling of viable or dead E. coli, fluorescence microscopy; type: cell-based, Escherichia coli; settings: 15 µM, 30 min at 37 °C, Figure 4
# Description: Escherichia coli (E. coli) (ATCC 8739) and Bacillus subtilis (B. subtilis) (ATCC 6633) strains were routinely grown in Luria Bertani (LB) broth or on LB agar plates for 18h at 37 °C. Waterborne environmental bacteria such as Enterobacter cloacae (E. cloacae), Chryseobacterium indologenes (C. indologenes), Pseudomonas aeruginosa (P. aeruginosa), and E. coli (EC18) were purchased from Eurofins™. Environmental bacteria were grown in LB broth or on casein-peptone soymeal-peptone agar plates for 18h at 37 °C.
# (§4) For the staining tests, E. coli (ATCC 8739 or EC18), E. cloacae, C. indologenes, P. aeruginosa and B. subtilis were cultivated in Luria-Bertani (LB) broth until exponential phase at 37°C with shaking at 300 rpm revolutions per minutes (rpm). Bacteria were harvested and washed in sterile phosphate buffer saline solution (PBS) at pH […] by centrifugation at 10000 rpm for 3 min at room temperature (21 ± 2 °C). Then the bacteria were resuspended in PBS at a concentration of 1·10^9 bacteria/ml. Bacteria concentration was calculated according to the turbidity measure at 660 nm (A660nm=1 correspond to bacterial suspension at ∼ 5·10^8 bacteria/ ml).
# (§5) Dead bacterial suspensions at 1·10^9 bacteria/ml (negative controls) of these five species of bacteria were prepared individually by addition of 20 µl of bleach containing 2.6 % active chlorine. Bacteria were treated with bleach solution for 15 min. Dead bacteria were washed twice in sterile PBS by centrifugation at 10000 rpm for 3 min at room temperature. The culturability of the negative controls was assessed by plating 100 µl of bacterial suspension onto LB agar or Caso agar and incubating the plates at 37 °C for 72 h.
# as §1, §2
# The pro-fluorophores according to the present invention are preferably used to label E. coli cells. Viable or dead E. coli (ATCC 8739) are incubated with these fluorophores and commercial 5-CFDA as described above. […] Glutaraldehyde is added to the incubation solutions to improve the retention of the fluorophores in bacteria.
# Bacteria were washed before being imaged with a Leica DM5500 microscope, 100x objective. Scale bars indicate 10 µm.
# E. coli (ATCC 8739) [5] = test: Labeling of viable E. coli, fluorescence intensity by spectrofluorometer; type: cell-based, Escherichia coli; settings: for E. coli staining at 40 µM compared with 5-CFDA or 5-PFDA / concentration range resulting in a saturation process / concentration up to which an increase of viable E. coli fluorescence intensity is obtained: data not shown; for viable E. coli fluorescence intensity relative to 5-CFDA staining: 10 - 15 µM, 30 min at 37 °C, excitation 488 nm, emission 517 nm, Figure 5
# Description: as §4, §5
# […] Bacteria were incubated at 37 °C for 10 - 60 min with pro-fluorophore in darkness. After bacterial staining, they were washed and resuspended in 100 µl of PBS as described above.
# as §2
# Viable or dead E. coli (ATCC 8739) were incubated with different pro-fluorophores (10 - 15 µM) for 30 min at 37 °C. After washes, fluorescence of the E. coli suspension was measured with a FluoroLog®-3 spectrofluorometer (excitation wavelength: 488 nm, emission wavelength: 517 nm). Relative rates of viable E. coli fluorescence intensity were calculated by normalizing the difference of viable E. coli fluorescence intensity and dead E. coli fluorescence intensity with 5-CFDA staining.
# Viable E. coli (ATCC 8739) were incubated with different pro-fluorophores (15 µM) at 37 °C for 10 - 60 min. After washes, E. coli fluorescence suspension was measured with FluoroLog®-3 spectrofluorometer (excitation wavelength: 488 nm, emission wavelength: 517 nm).
SMILES,E (extinction coefficient) [1] [M⁻¹ cm⁻¹],λAbs max [1] [nm],chemical stability in aqueous solution (in words) [2],relative speed of spontaneous fluorescence generation (spontaneous hydrolysis) [2],staining of viable versus dead bacteria (Citobacter freudii),staining of viable versus dead bacteria [3],staining of viable versus dead bacteria (Klebsiella oxytoca),staining of viable E. coli (microscopy) (E. coli (ATCC 8739) [4]),E. coli staining at 40 µM compared with 5-CFDA or 5-PFDA (E. coli (ATCC 8739) [5]),viable E. coli fluorescence intensity relative to 5-CFDA staining (E. coli (ATCC 8739) [5]),concentration range resulting in a saturation process (E. coli (ATCC 8739) [5]) [µM],concentration up to which an increase of viable E. coli fluorescence intensity is obtained (E. coli (ATCC 8739) [5])
"CCCNC(=O)c1ccc2c(c1)C(=O)OC21c2cc(F)c(OC(C)=O)cc2Oc2cc(OC(C)=O)c(F)cc21 [Example 5-POGDA, 2',7'-difluoro-3-oxo-5-(propylcarbamoyl)-3H-spiro[isobenzofuran-1,9'-xanthene]-3',6'-diyl diacetate]",9784 ± 351,303,less stable,almost six times higher,The same results were obtained,The same results were obtained,The same results were obtained,specifically stained with high fluorescence intensity,stronger E. coli staining than 5-CFDA or 5-PFDA,approximately 6,20 to 40,about 15 µM
"CCCNC(=O)c1ccc2c(c1)C(=O)OC21c2cc(F)c(OCOC(C)=O)cc2Oc2cc(OCOC(C)=O)c(F)cc21 [Example 5-POGAM, 2',7'-difluoro-3-oxo-5-(propylcarbamoyl)-3H-spiroisobenzofuran-1,9'-xanthene-3',6'-diyl diacetoxymethyl ether]",11165 ± 334,302,greater chemical stability in aqueous solution; also recorded: much more stable in aqueous solution,almost four times slower,The same results were obtained,The same results were obtained,The same results were obtained,specifically stained with high fluorescence intensity,stronger E. coli staining than 5-CFDA or 5-PFDA,between two and three times higher; also recorded: three times brighter,20 to 40,about 15 µM
